Drawing on patent US8377945B2, “Small molecule inhibitors of spleen tyrosine kinase (SYK)” (Rigel Pharmaceuticals Inc., priority 2009, dated 2013), this text covers IC50 for 39 molecules.

The subject of assay [1] is Human mast cells (CHMC cells). The assay can be described thus: Tryptase release assay (mast cell degranulation induced by anti-IgG FcγR cross-linking). The class given is cell-based. The following applies: IC50 of tryptase release from human mast cells after anti-IgG stimulation, read-out: LD Tryptase. As to the method:
Compounds were assayed for inhibition of mast cell activation induced by FcγR cross-linking by measuring the activity of tryptase released upon degranulation as follows:
Human mast cells were cultured and differentiated from […] progenitor cell as described in U.S. Patent Publication No. 2005-234049, incorporated herein by reference. For example, 65 μl of various concentrations of the compound to be assayed were prepared in MT (137 mM NaCl, 2.7 mM KCl, 1.8 mM CaCl2, 1.0 mM MgCl2, 5.6 mM Glucose, 20 mM Hepes (pH 7.4), 0.1% Bovine Serum Albumin, (Sigma A4503)) containing 2% MeOH and 1% DMSO, or control buffer were added to duplicate 96-well V-bottom plates. Pelleted and resuspended (in warm MT) CHMC cells (65 μl) were added to each 96-well plate, mixed and incubated for 1 hour at 37° C. 25 μl of 6× anti-IgG Rabbit anti-human IgG, Affinity purified (Bethyl Laboratories Cat No. A80-105A3) final concentration 1 μg/ml, was added to the test wells. MT (25 μl) was added to control wells. After a 60-minute incubation at 37° C., cells and cell debris were pelleted by centrifugation at 1000 rpm for 10 min and tryptase and leukotriene C4 levels were measured.
To measure tryptase levels, 25 μl of supernatant from each well was transferred to a fresh 96-well black bottom plate, to which 100 μl of fresh tryptase substrate solution [(Z-Ala-Lys-Arg-AMC2TFA; Enzyme Systems Products, #AMC-246)] 1:2000 in tryptase assay buffer [0.1 M Hepes (pH 7.5), 10% w/v Glycerol, 10 μM Heparin (Sigma H-4898) 0.01% NaN3] was added. After 30 minute incubation at room temperature, the optical density of the plates is measured at 355 nm/460 nm on a spectrophotometric plate reader. Table 2 provides the IC50 values.

Another assay addresses T1, Syk kinase (Homo sapiens, UniProt P43405).
T1 construct: purchased Millipore 14-314
The assay is described as follows: ELISA-based Syk kinase assay (phosphorylation of HS1 peptide substrate by isolated Syk kinase). Particulars: IC50 of Syk kinase inhibition; 2 μM ATP, 2 μM peptide substrate. The class given is biochemical. As for the experimental part:
Compounds were tested for the ability to inhibit Syk kinase catalyzed phosphorylation of a peptide substrate in an assay with isolated Syk kinase.
An assay was carried out in a Costar white 96 well plate (Fisher Scientific, Cat No. 07-200-591) coated overnight with 0.01 mg/ml Neutravidin (Pierce, 100 μl/well) at 4° C. Neutravidin pre-coated 96 well plates were blocked with 2% BSA in PBST buffer for at least 1 hour before starting the assay at room temperature. Serially diluted compound stock solution containing a subject compound was prepared separately in DMSO solution starting from 300 μM and 2 μl of this diluted compound (3% DMSO final concentration) was added directly to neutravidin coated assay plate containing 55.5 μl/well of kinase reaction buffer composed of 20 mM HEPES, pH 7.4, 5 mM MgCl2, 2 mM MnCl2, 1 mM DTT, 0.01% Tween 20 pre-mixed with ATP and kinase substrate (HS1 peptide). Reaction was initiated by adding of 2.5 μl/well Syk kinase (Millipore, Cat No. 14-314) resulting in a final reaction volume of 60 μl and then the reaction was allowed to continue for 30 minutes at room temperature. Final enzyme reaction conditions were 20 mM HEPES, pH 7.4, 5 mM MgCl2, 2 mM MnCl2, 1 mM DTT, 0.01% Tween 20, 0.25 ng Syk, 2 μM ATP, 2 μM peptide substrate (Biotin-EQEDEPEGDYEEVLE-CONH2, SynPep Corporation). After completing the reaction, assay plate was washed three times with PBST and incubated for 1 hour at room temperature with 100 μl/well of phosphopeptide detection antibody solution prepared by mixing 1-1000 diluted mouse anti-pTyr monoclonal antibody (Cell Signal Technology, Cat No. 9411) and 1-1000 diluted goat HRP-conjugated anti-mouse IgG (Jackson Immunoresearch, Cat. No. 115-035-003). Before developing the plate with supersignal ELISA pico chemiluminescent substrate (Pierce), plate was washed three times again with PBST and were read on a SpectraMax M5 microplate reader (Moleculear Devices).
(In general: ELISA stands for enzyme-linked immunosorbent assay.)

For the molecule `COc1ccc(Nc2c(-c3ccc(OC)c(OC4CCCC4)c3)[nH]c3c(C#N)cnn23)cc1OC` [Compound 106], the IC50 is under 10 µM in assay [1] and under 0.5 µM at Syk kinase.

`COc1ccc(Nc2c(-c3ccc(OCCN4CCCC4=O)cc3)[nH]c3c(C#N)cnn23)cc1OC` [Compound 107]: the IC50 is under 10 µM in assay [1] and 0.51 to 2.99 µM at Syk kinase.

Regarding `COCCOc1ccc(-c2[nH]c3c(C#N)cnn3c2Nc2ccc(OC)c(OC)c2)cc1OC` [Compound 108], the results for the IC50 (in assay [1]; on Syk kinase) were under 10 µM and under 0.5 µM, respectively.

Turning to `COc1cc(Nc2c(-c3ccc4c(c3)NC(=O)CO4)[nH]c3c(C#N)cnn23)ccc1F` [Compound 109], the results for the IC50 (in assay [1]; against Syk kinase) were 11 to 100 µM and 0.51 to 2.99 µM, respectively.

For `COc1ccc(Nc2c(-c3cccc(O)c3)[nH]c3c(C#N)cnn23)cc1OC` [Compound 112], the IC50 in assay [1] is under 10 µM; against Syk kinase, 0.51 to 2.99 µM.

On to `COC(=O)COc1ccc(-c2[nH]c3c(C#N)cnn3c2Nc2ccc(OC)c(OC)c2)cc1` [Compound 113], for which the IC50 in assay [1] is under 10 µM; at Syk kinase, 0.51 to 2.99 µM.

Turning to `COc1ccc(Nc2c(-c3cccc(NS(C)(=O)=O)c3)[nH]c3c(C#N)cnn23)cc1OC` [Compound 114], the values for the IC50 (in assay [1]; at Syk kinase) were under 10 µM and 0.51 to 2.99 µM, respectively.

For `COc1cc(Nc2c(-c3ccc(OCCO)c(OC)c3)[nH]c3c(C#N)cnn23)ccc1F` [Compound 116], the IC50 in assay [1] is under 10 µM; against Syk kinase, under 0.5 µM.

In the case of `COc1cc(Nc2c(-c3ccc(C(N)=O)cc3)[nH]c3c(C#N)cnn23)ccc1F` [Compound 117], the IC50 in assay [1] is over 5000 µM; on Syk kinase it was 0.51 to 2.99 µM.

For the molecule `COc1cc(Nc2c(-c3cc(O)c(OC)c(OC)c3)[nH]c3c(C#N)cnn23)ccc1F` [Compound 118], the IC50 was under 10 µM in assay [1] and under 0.5 µM against Syk kinase.

Turning to `COc1cc(Nc2c(-c3ccc(OC)c(OC4CCCC4)c3)[nH]c3c(C#N)cnn23)ccc1F` [Compound 119], the IC50 in assay [1] is under 10 µM; against Syk kinase it was 0.51 to 2.99 µM.

Regarding `COc1cc(-c2[nH]c3c(C#N)cnn3c2Nc2ccc(F)c(C)c2)cc(OC)c1OC` [Compound 120], the IC50 in assay [1] is under 10 µM; on Syk kinase, 0.51 to 2.99 µM.

Consider `COCCOc1ccc(-c2[nH]c3c(C#N)cnn3c2Nc2ccc(F)c(OC)c2)cc1OC` [Compound 122], for which the IC50 was under 10 µM in assay [1] and 0.51 to 2.99 µM against Syk kinase.

On to `COc1ccc(Nc2c(-c3ccc(OCCN4CCOCC4)cc3)[nH]c3c(C#N)cnn23)cc1OC` [Compound 124], for which the IC50 was under 10 µM in assay [1] and 0.51 to 2.99 µM against Syk kinase.

In the case of `COc1ccc(Nc2c(-c3ccc(OC)c(OCC(N)=O)c3)[nH]c3c(C#N)cnn23)cc1OC` [Compound 125], the IC50 in assay [1] was under 10 µM; at Syk kinase, 0.51 to 2.99 µM.

Turning to `COc1ccc(Nc2c(-c3cc(OC)c(OC)c(OC)c3)[nH]c3c(C#N)cnn23)cc1F` [Compound 127], the IC50 is under 10 µM in assay [1] and under 0.5 µM against Syk kinase.

Consider `COc1cc(Nc2c(-c3cc(OC)c(OC)c(OC)c3)[nH]c3c(C#N)cnn23)ccc1Cl` [Compound 132], for which the figures for the IC50 (in assay [1]; on Syk kinase) were under 10 µM and 0.51 to 2.99 µM, respectively.

`COc1cc(-c2[nH]c3c(C#N)cnn3c2Nc2ccc(F)c(OC(C)C)c2)cc(OC)c1OC` [Compound 133]: the IC50 in assay [1] was under 10 µM; at Syk kinase, 0.51 to 2.99 µM.

Take `COc1ccc(Nc2c(-c3ccc(OCC(N)=O)c(OC)c3)[nH]c3c(C#N)cnn23)cc1OC` [Compound 135]: the IC50 was under 10 µM in assay [1] and under 0.5 µM against Syk kinase.

Take `COc1ccc(Nc2c(-c3cc(C)c(OC)c(C)c3)[nH]c3c(C#N)cnn23)cc1OC` [Compound 136]: the IC50 in assay [1] was under 10 µM; at Syk kinase it was 0.51 to 2.99 µM.

Regarding `COc1cc(-c2[nH]c3c(C#N)cnn3c2Nc2ccc3c(c2)NC(=O)CO3)cc(OC)c1OC` [Compound 137], the IC50 is under 10 µM in assay [1] and under 0.5 µM on Syk kinase.

Take `COc1cc(Nc2c(-c3ccc(OC)c(OCC(N)=O)c3)[nH]c3c(C#N)cnn23)ccc1F` [Compound 138]: the IC50 is under 10 µM in assay [1] and 0.51 to 2.99 µM against Syk kinase.

Turning to `COc1cc(Nc2c(-c3ccc(OCC(N)=O)c(OC)c3)[nH]c3c(C#N)cnn23)ccc1F` [Compound 139], the IC50 was under 10 µM in assay [1] and under 0.5 µM on Syk kinase.

In the case of `COc1ccc(Nc2c(-c3ccc(OCC(=O)NC4CC4)c(OC)c3)[nH]c3c(C#N)cnn23)cc1OC` [Compound 140], the results for the IC50 (in assay [1]; against Syk kinase) were under 10 µM and under 0.5 µM, respectively.

`COc1cc(-c2[nH]c3c(C#N)cnn3c2Nc2ccc(OC(C)C)c(Cl)c2)cc(OC)c1OC` [Compound 141]: the IC50 in assay [1] is under 10 µM; against Syk kinase, 0.51 to 2.99 µM.

In the case of `COc1cc(Nc2c(-c3cc(OC)c(OC)c(OC)c3)[nH]c3c(C#N)cnn23)cc(OC)c1` [Compound 142], the IC50 was under 10 µM in assay [1] and under 0.5 µM on Syk kinase.

On to `COc1cc(-c2[nH]c3c(C#N)cnn3c2Nc2cc(F)c(OC)c(F)c2)cc(OC)c1OC` [Compound 143], for which the IC50 in assay [1] was under 10 µM; against Syk kinase, under 0.5 µM.

Take `CCOc1cc(Nc2c(-c3cc(OC)c(OC)c(OC)c3)[nH]c3c(C#N)cnn23)ccc1F` [Compound 144]: the IC50 in assay [1] was under 10 µM; at Syk kinase, 0.51 to 2.99 µM.

Regarding `COc1cc(-c2[nH]c3c(C#N)cnn3c2Nc2ccc(F)c(OC3CCCC3)c2)cc(OC)c1OC` [Compound 145], the IC50 was under 10 µM in assay [1] and 0.51 to 2.99 µM against Syk kinase.

Consider `COc1cc(-c2[nH]c3c(C#N)cnn3c2Nc2cccc(CNC(=O)c3cccnc3)c2)cc(OC)c1OC` [Compound 146], for which the IC50 in assay [1] is 11 to 100 µM; on Syk kinase it was 0.51 to 2.99 µM.

As for `COc1cc(-c2[nH]c3c(C#N)cnn3c2Nc2cccc(CNC(=O)c3ccccn3)c2)cc(OC)c1OC` [Compound 147], the IC50 was under 10 µM in assay [1] and under 0.5 µM against Syk kinase.

Take `COc1cc(-c2[nH]c3c(C#N)cnn3c2Nc2cccc(CNC(=O)c3ccncc3)c2)cc(OC)c1OC` [Compound 148]: the IC50 was 101 to 5000 µM in assay [1] and under 0.5 µM on Syk kinase.

On to `COc1cc(-c2[nH]c3c(C#N)cnn3c2Nc2ccc(CNC(=O)c3ccccn3)cc2)cc(OC)c1OC` [Compound 149], for which the IC50 is under 10 µM in assay [1] and 0.51 to 2.99 µM against Syk kinase.

Turning to `COc1cc(-c2[nH]c3c(C#N)cnn3c2Nc2ccc(CNC(=O)c3ccncc3)cc2)cc(OC)c1OC` [Compound 150], the IC50 in assay [1] lay within 11 to 100 µM; against Syk kinase, 0.51 to 2.99 µM.

`COc1cc(-c2[nH]c3c(C#N)cnn3c2Nc2ccc(CNC(=O)c3ccc(C#N)nc3)cc2)cc(OC)c1OC` [Compound 151]: the IC50 is over 5000 µM in assay [1] and 0.51 to 2.99 µM against Syk kinase.

As for `COc1cc(-c2[nH]c3c(C#N)cnn3c2Nc2ccc(CNC(=O)c3cccnc3C)cc2)cc(OC)c1OC` [Compound 152], the results for the IC50 (in assay [1]; against Syk kinase) were over 5000 µM and under 0.5 µM, respectively.

As for `COc1cc(-c2[nH]c3c(C#N)cnn3c2Nc2ccc(CNC(=O)c3cccnc3OC)cc2)cc(OC)c1OC` [Compound 153], the IC50 in assay [1] was under 10 µM; on Syk kinase, under 0.5 µM.

`COc1cc(-c2[nH]c3c(C#N)cnn3c2Nc2ccc(CNC(=O)c3ccc(C)nc3)cc2)cc(OC)c1OC` [Compound 154]: the values for the IC50 (in assay [1]; at Syk kinase) were 11 to 100 µM and 0.51 to 2.99 µM, respectively.

In the case of `COc1cc(-c2[nH]c3c(C#N)cnn3c2Nc2ccc(CNC(=O)c3cnccc3C(F)(F)F)cc2)cc(OC)c1OC` [Compound 155], the IC50 is under 10 µM in assay [1] and 0.51 to 2.99 µM against Syk kinase.
